23 compounds from patent US8785488B2 (Exelixis Patent Company LLC, priority 2009, dated 2014) can be followed below.

The EC50 is the concentration giving half of the maximal effect.

Molecules are shown by their SMILES. Like-named read-outs stand apart in the source and are kept apart here. Some results are limits rather than exact numbers.

This assay concerns the target T1, human TGR5 (h-TGR5) (Homo sapiens, UniProt Q8TDU6).
T1 construct: expressed in transfected cells
T1 sequence (Q8TDU6 1-330): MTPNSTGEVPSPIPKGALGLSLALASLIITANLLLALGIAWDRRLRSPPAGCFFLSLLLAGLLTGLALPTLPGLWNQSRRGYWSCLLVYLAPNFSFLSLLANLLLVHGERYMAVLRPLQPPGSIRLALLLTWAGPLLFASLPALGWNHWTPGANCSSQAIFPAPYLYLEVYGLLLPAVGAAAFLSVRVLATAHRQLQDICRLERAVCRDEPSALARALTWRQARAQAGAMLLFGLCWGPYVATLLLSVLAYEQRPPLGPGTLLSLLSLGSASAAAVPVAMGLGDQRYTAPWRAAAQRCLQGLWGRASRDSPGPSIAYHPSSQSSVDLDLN
In words: TGR5/CRE-Luciferiase Assay (HEK 293 hTGR5/CRE-Luc cells). Type of assay: cell-based. An outline of the steps:
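HEK293 cells stably carrying hTGR5 and a CRE-luciferase reporter were exposed to serially diluted compounds (diluted in DMEM with 5% DMSO) for 6 h. Cells were then lysed in luciferase buffer, luminescence was read, and EC50 values were derived from dose-response curves.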

Setting [1] is: h-TGR5 CRE-Luc EC50, Table 1, read-out: CRE-Luc (EC50).

In the case of `CC(C)(c1ccc(Cl)c(S(N)(=O)=O)c1)c1cnc(SCc2c(F)cc(C(=O)O)cc2F)n1-c1ccc(F)cc1` [4-({[5-{1-[3-(aminosulfonyl)-4-chlorophenyl]-1-methylethyl}-1-(4-fluorophenyl)-1H-imidazol-2-yl]thio}methyl)-3,5-difluorobenzoic acid], the EC50 under setting [1] is 1000 to 10000 nM.

On to `CC(C)(c1ccc(Cl)c(Cl)c1)c1cnc(COc2ccc(C#N)cn2)n1-c1ccc(F)cc1` [6-[({5-[1-(3,4-dichlorophenyl)-1-methylethyl]-1-(4-fluorophenyl)-1H-imidazol-2-yl}methyl)oxy]pyridine-3-carbonitrile], for which, under setting [1], the EC50 fell in the range of 100 to 1000 nM.

`COc1ccc(C(C)(C)c2cnc(SCc3ccc(C(=O)O)cc3F)n2-c2ccc(F)cc2)cc1Cl` [4-({[5-{1-[3-chloro-4-(methyloxy)phenyl]-1-methylethyl}-1-(4-fluorophenyl)-1H-imidazol-2-yl]thio}methyl)-3-fluorobenzoic acid]: the EC50 under setting [1] was in the range of 100 to 1000 nM.

Regarding `CC(C)NC(=O)N1CCC(CSc2ncc(C(C)(C)c3ccc(F)c(F)c3)n2-c2ccc(F)cc2)CC1` [4-[({5-[1-(3,4-difluorophenyl)-1-methylethyl]-1-(4-fIuorophenyl)-1H-imidazol-2-yl}thio)methyl]-N-(1-methylethyl)piperidine-1-carboxamide], the half-maximal effective concentration (EC50) under setting [1] was in the range of 100 to 1000 nM.

In the case of `CC(C)(c1ccc(Cl)c(Cl)c1)c1cnc(SCc2ccc(F)c(C#N)c2)n1-c1ccc(F)cc1` [5-[({5-[1-(3,4-dichlorophenyl)-1-methylethyl]-1-(4-fluorophenyl)-1H-imidazol-2-yl}thio)methyl]-2-fluorobenzonitrile], the EC50 under setting [1] is 100 to 1000 nM.

As for `COc1cc(F)ccc1-n1c(C(C)(C)c2ccc(Cl)c(Cl)c2)cnc1SCc1ccc(F)cc1Cl` [2-{[(2-chloro-4-fluorophenyl)methyl]thio}-5-[1-(3,4-dichlorophenyl)-1-methylethyl]-1-[4-fluoro-2-(methyloxy)phenyl]-1H-imidazole], under setting [1], the half-maximal effective concentration (EC50) was 100 to 1000 nM.

As to `CC(C)(c1ccc(Cl)c(Cl)c1)c1cnc(SCc2ccc(C#N)c(Cl)c2)n1-c1ccc(F)cc1` [2-chloro-4-[({5-[1-(3,4-dichlorophenyl)-1-methylethyl]-1-(4-fluorophenyl)-1H-imidazol-2-yl}thio)methyl]benzonitrile], the EC50 under setting [1] was 100 to 1000 nM.

For `CC(C)(c1ccc(Cl)c(Cl)c1)c1cnc(SCc2ccc(F)cc2Cl)n1-c1ccc(F)c(C#N)c1` [5-(2-{[(2-chloro-4-fluorophenyl)methyl]thio}-5-[1-(3,4-dichlorophenyl)-1-methylethyl]-1H-imidazol-1-yl)-2-fluorobenzonitrile], the concentration for a half-maximal effect (EC50) under setting [1] lay within 100 to 1000 nM.

As to `CC(C)(c1ccc(Cl)c(Cl)c1)c1cnc(SCc2c(F)cccc2Cl)n1-c1ccc(F)c(Cl)c1` [1-(3-chloro-4-fluorophenyl)-2-{[(2-chloro-6-fluorophenyl)methyl]thio}-5-[1-(3,4-dichlorophenyl)-1-methylethyl]-1H-imidazole], the concentration for a half-maximal effect (EC50) under setting [1] is below 100 nM.

For `CC(C)(c1ccc(Cl)c(Cl)c1)c1cnc(SCc2ccc(Cl)c(C(=N)N)c2)n1-c1ccc(F)cc1` [2-chloro-5-[({5-[1-(3,4-dichlorophenyl)-1-methylethyl]-1-(4-fluorophenyl)-1H-imidazol-2-yl}thio)methyl]benzenecarboximidamide], under setting [1], the EC50 lay within 1000 to 10000 nM.

For `Fc1ccc(CSc2nnc(Cc3ccc(Cl)c(Cl)c3)n2-c2ccc(F)cc2)cc1` [Example 17], the EC50 (HEK 293 hTGR5/CRE-Luc cells, 6 hours incubation, luciferase activity, Table 2, read-out: h-TGR5CRE-Luc EC50 (CRE-Luc)) lay within 1000 to 10000 nM.

`CC(C)(Oc1cc(-n2c(C(C)(C)c3ccc(Cl)c(Cl)c3)cnc2SCc2ccc(F)cc2Cl)ccc1F)C(=O)O` [2-{[5-(2-{[(2-chloro-4-fluorophenyl)methyl]thio}-5-[1-(3,4-dichlorophenyl)-1-methylethyl]-1H-imidazol-1-yl)-2-fluorophenyl]oxy}-2-methylpropanoic acid]: the 50% effective concentration (EC50) under setting [1] is 1000 to 10000 nM.

Turning to `CC1CCc2cc(F)ccc2N1S(=O)(=O)c1ncc(C(C)(C)c2ccc(Cl)c(Cl)c2)n1-c1ccc(F)cc1` (centres unmarked) [1-({5-[1-(3,4-dichlorophenyl)-1-methylethyl]-1-(4-fluorophenyl)-1H-imidazol-2-yl}sulfonyl)-6-fluoro-2-methyl-1,2,3,4-tetrahydroquinoline], under setting [1], the EC50 lay within 1000 to 10000 nM.

In the case of `CC(C)(c1ccc(Cl)c(Cl)c1)c1cnc(SCc2ccc(OCCCO)c(C#N)c2)n1-c1ccc(F)cc1` [5-[({5-[1-(3,4-dichlorophenyl)-1-methylethyl]-1-(4-fluorophenyl)-1H-imidazol-2-yl}thio)methyl]-2-[(3-hydroxypropyl)oxy]benzonitrile], the EC50 under setting [1] was 100 to 1000 nM.

For `CC(C)(c1ccc(Cl)c(Cl)c1)c1cnc(COc2ccc3ncccc3c2)n1-c1ccc(F)cc1` [6-[({5-[1-(3,4-dichlorophenyl)-1-methylethyl]-1-(4-fluorophenyl)-1H-imidazol-2-yl}methyl)oxy]quinoline], the EC50 under setting [1] was in the range of 100 to 1000 nM.

As to `COc1ccc(C(C)(C)c2cnc(SCc3ccc(Cl)c(Cl)c3)n2-c2ccc(F)cc2)cc1OC` [5-{1-[3,4-bis(methyloxy)phenyl]-1-methylethyl}-2-{[(3,4-dichlorophenyl)methyl]thio}-1-(4-fluorophenyl)-1H-imidazole], the EC50 under setting [1] is below 100 nM.

As to `CC(C)(c1ccc(Cl)c(Cl)c1)c1cnc(SCc2ccc(C(=O)NCC(F)(F)F)cc2F)n1-c1ccc(F)cc1` [4-[({5-[1-(3,4-dichlorophenyl)-1-methylethyl]-1-(4-fluorophenyl)-1H-imidazol-2-yl}thio)methyl]-3-fluoro-N-(2,2,2-trifluoroethyl)benzamide], the EC50 under setting [1] fell in the range of 100 to 1000 nM.

In the case of `CC(C)(c1ccc(Cl)c(Cl)c1)c1cnc(SCc2ccc(F)c(C(=O)NCCc3c[nH]cn3)c2)n1-c1ccc(F)cc1` [5-[({5-[1-(3,4-dichlorophenyl)-1-methylethyl]-1-(4-fluorophenyl)-1H-imidazol-2-yl}thio)methyl]-2-fluoro-N-[2-(1H-imidazol-4-yl)ethyl]benzamide], the EC50 under setting [1] lay in the range of 100 to 1000 nM.

`CCN(CC)CCOc1cc(-n2c(C(C)(C)c3ccc(Cl)c(Cl)c3)cnc2SCc2c(F)cc(C(=O)O)cc2Cl)ccc1F` [3-chloro-4-[({5-[1-(3,4-dichlorophenyl)-1-methylethyl]-1-(3-{[2-(diethylamino)ethyl]oxy}-4-fluorophenyl)-1H-imidazol-2-yl}thio)methyl]-5-fluorobenzoic acid]: under setting [1], the half-maximal effective concentration (EC50) was 100 to 1000 nM.

As for `CC(C)(c1ccc(Cl)c(Cl)c1)c1cnc(SCc2c(Cl)cccc2C(=O)O)n1-c1ccc(F)cc1` [3-chloro-2-[({5-[1-(3,4-dichlorophenyl)-1-methylethyl]-1-(4-fluorophenyl)-1H-imidazol-2-yl}thio)methyl]benzoic acid], under setting [1], the EC50 was 100 to 1000 nM.

Take `CC(C)(O)c1ccc(CSc2ncc(C(C)(C)c3ccc(Cl)c(Cl)c3)n2-c2ccc(F)cc2)c(Cl)c1` [2-{3-chloro-4-[({5-[1-(3,4-dichlorophenyl)-1-methylethyl]-1-(4-fluorophenyl)-1H-imidazol-2-yl}thio)methyl]phenyl}propan-2-ol]: the EC50 under setting [1] fell in the range of 100 to 1000 nM.

Take `CC(C)(c1ccc(Cl)c(Cl)c1)c1cnc(SCc2ccc(C#N)cc2Cl)n1-c1ccc(F)cc1` [3-chloro-4-[({5-[1-(3,4-dichlorophenyl)-1-methylethyl]-1-(4-fluorophenyl)-1H-imidazol-2-yl}thio)methyl]benzonitrile]: the EC50 under setting [1] fell in the range of 100 to 1000 nM.

In the case of `CC(C)(c1ccc(Cl)c(Cl)c1)c1cnc(COCc2ccc(F)cc2Cl)n1-c1ccc(F)cc1` [2-({[(2-chloro-4-fluorophenyl)methyl]oxy}methyl)-5-[1-(3,4-dichlorophenyl)-1-methylethyl]-1-(4-fluorophenyl)-1H-imidazole], the EC50 under setting [1] was 1000 to 10000 nM.
